Key:
HDAC5 = HDAC5 (Homo sapiens (Human), UniProt Q9UQL6); settings: read-out: HDAC5 IC50
HDAC1 = HDAC1 (Homo sapiens (Human), UniProt Q13547); settings: read-out: HDAC1 IC50
HDAC8 = HDAC8 (Homo sapiens (Human), UniProt Q9BY41); settings: read-out: HDAC8 IC50
Sequence of HDAC8 (Q9BY41 whole entry): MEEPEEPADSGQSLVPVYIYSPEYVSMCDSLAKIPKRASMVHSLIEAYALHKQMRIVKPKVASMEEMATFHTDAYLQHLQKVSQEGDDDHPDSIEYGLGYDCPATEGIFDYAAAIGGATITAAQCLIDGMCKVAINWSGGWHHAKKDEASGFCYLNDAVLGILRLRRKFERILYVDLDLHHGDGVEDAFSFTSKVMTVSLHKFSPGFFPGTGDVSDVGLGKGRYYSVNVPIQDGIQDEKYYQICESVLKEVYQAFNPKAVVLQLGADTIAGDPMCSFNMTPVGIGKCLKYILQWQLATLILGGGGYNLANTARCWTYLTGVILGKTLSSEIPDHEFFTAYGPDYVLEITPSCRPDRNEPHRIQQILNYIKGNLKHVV

Sequence of HDAC1 (Q13547 whole entry): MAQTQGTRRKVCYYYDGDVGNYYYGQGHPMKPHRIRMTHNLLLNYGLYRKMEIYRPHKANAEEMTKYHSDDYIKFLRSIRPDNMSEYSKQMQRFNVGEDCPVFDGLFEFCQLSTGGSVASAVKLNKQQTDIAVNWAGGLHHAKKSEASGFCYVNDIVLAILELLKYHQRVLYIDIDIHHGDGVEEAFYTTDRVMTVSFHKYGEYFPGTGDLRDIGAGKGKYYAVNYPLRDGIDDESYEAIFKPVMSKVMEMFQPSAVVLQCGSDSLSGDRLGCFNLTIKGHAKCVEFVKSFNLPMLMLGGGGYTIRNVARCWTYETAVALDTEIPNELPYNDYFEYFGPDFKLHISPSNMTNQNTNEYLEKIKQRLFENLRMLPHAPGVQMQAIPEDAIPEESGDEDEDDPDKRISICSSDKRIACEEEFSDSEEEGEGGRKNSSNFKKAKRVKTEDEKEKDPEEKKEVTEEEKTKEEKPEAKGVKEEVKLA
Sequence of HDAC5 (Q9UQL6 656-1122): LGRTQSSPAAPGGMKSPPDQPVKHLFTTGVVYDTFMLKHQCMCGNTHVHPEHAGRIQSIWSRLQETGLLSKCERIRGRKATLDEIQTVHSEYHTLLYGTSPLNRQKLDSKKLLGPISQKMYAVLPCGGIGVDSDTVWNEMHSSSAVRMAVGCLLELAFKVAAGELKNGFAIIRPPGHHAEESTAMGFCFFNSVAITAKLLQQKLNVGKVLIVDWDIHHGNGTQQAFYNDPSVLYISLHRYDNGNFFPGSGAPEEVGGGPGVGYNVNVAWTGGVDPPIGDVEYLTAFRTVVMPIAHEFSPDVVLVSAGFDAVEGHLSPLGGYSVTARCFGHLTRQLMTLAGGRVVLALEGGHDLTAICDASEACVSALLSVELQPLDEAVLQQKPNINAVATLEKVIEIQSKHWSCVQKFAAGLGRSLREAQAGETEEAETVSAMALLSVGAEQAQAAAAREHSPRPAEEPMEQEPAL

SMILES	IC50 (HDAC5) [nM]	IC50 (HDAC1) [nM]	IC50 (HDAC8) [µM]
O=C1CCC(c2ccccc2Cl)N1c1cc(F)c(-c2noc(C(F)(F)F)n2)cc1F (racemic) [Example 120, 5-(2-chlorophenyl)-1-(2,5-difluoro-4-(5-(trifluoromethyl)-1,2,4-oxadiazol-3-yl)phenyl)pyrrolidin-2-one]	79		
O=C(NC(Cc1ccc(-c2noc(C(F)(F)F)n2)cn1)c1cccc(C(F)(F)F)c1)C1CCS(=O)(=O)CC1 (racemic) [Example 477, 1,1-dioxo-N-(2-{5-[5-(trifluoromethyl)-1,2,4-oxadiazol-3-yl]pyridin-2-yl}-1-[3-(trifluoromethyl)phenyl]ethyl)-llambda~6~-thiane-4-carboxamide]	620	670	
CC(C)(C)CC(=O)NC(Cc1ccc(-c2noc(C(F)(F)F)n2)cn1)c1cccc(C(F)(F)F)c1 (racemic) [Example 481, 3,3-dimethyl-N-(2-{5-[5-(trifluoromethyl)-1,2,4-oxadiazol-3-yl]pyridin-2-yl}-1-[3-(trifluoromethyl)phenyl]ethyl)butanamide]	710	1100	
O=C(NC(Cc1ccc(-c2noc(C(F)(F)F)n2)cn1)c1cccc(C(F)(F)F)c1)c1ccccc1 (racemic) [Example 486, N-(2-{5-[5-(trifluoromethyl)-1,2,4-oxadiazol-3-yl]pyridin-2-yl}-1-[3-(trifluoromethyl)phenyl]ethyl)benzamide]	670	690	
O=C(NC(Cc1ccc(-c2noc(C(F)(F)F)n2)cn1)c1cccc(C(F)(F)F)c1)c1ccccn1 (racemic) [Example 488, N-(2-{5-[5-(trifluoromethyl)-1,2,4-oxadiazol-3-yl]pyridin-2-yl}-1-[3-(trifluoromethyl)phenyl]ethyl)pyridine-2-carboxamide]	670	880	
O=S1(=O)CCC(S(=O)(=O)N(Cc2ccc(-c3noc(C(F)(F)F)n3)cc2)c2cccc(C(F)(F)F)c2)C1 (racemic) [Example 492, 1,1-dioxo-N-({4-[5-(trifluoromethyl)-1,2,4-oxadiazol-3-yl]phenyl}methyl)-N-[3-(trifluoromethyl)phenyl]-llambda~6~-thiolane-3-sulfonamide]	390	1200	
O=C(N1CCOCC1)N(Cc1ncc(-c2noc(C(F)(F)F)n2)cn1)c1cccc(C(F)(F)F)c1 [Example 50, N-((5-(5-(trifluoromethyl)-1,2,4-oxadiazol-3-yl)pyrimidin-2-yl)methyl)-N-(3-(trifluoromethyl)phenyl)morpholine-4-carboxamide]	820	240	
Fc1cc(-c2noc(C(F)(F)F)n2)ccc1COc1ccccc1 [Example 168, 3-(3-Fluoro-4-(phenoxymethyl)phenyl)-5-(trifluoromethyl)-1,2,4-oxadiazole]	1100	15000	
CCNC(=O)NC(Cc1ccc(-c2noc(C(F)(F)F)n2)cn1)c1cccc(C(F)(F)F)c1 (centres unmarked) [Example 179, 1-Ethyl-3-(2-(5-(5-(trifluoromethyl)-1,2,4-oxadiazol-3-yl)pyridin-2-yl)-1-(3-(trifluoromethyl)phenyl)ethyl)urea]	390	340	
COC(=O)NC(Cc1ccc(-c2noc(C(F)(F)F)n2)cn1)c1cccc(C(F)(F)F)c1 (centres unmarked) [Example 180]	650	650	
Fc1ccccc1OCc1cc(-c2noc(C(F)(F)F)n2)ccn1 [Example 250, 2-[(2-fluorophenoxy)methyl]-4-[5-(trifluoromethyl)-1,2,4-oxadiazol-3-yl]pyridine]	910	3100	
Fc1cc(COc2cccnn2)ccc1-c1noc(C(F)(F)F)n1 [Example 257, 3-({3-fluoro-4-[5-(trifluoromethyl)-1,2,4-oxadiazol-3-yl]phenyl}methoxy)pyridazine]	200	6400	
COc1cncc(OCc2ccc(-c3noc(C(F)(F)F)n3)c(F)c2)c1 [Example 258, 3-({3-fluoro-4-[5-(trifluoromethyl)-1,2,4-oxadiazol-3-yl]phenyl}methoxy)-5-methoxypyridine]	150	1200	
Fc1cc(COc2cnc3[nH]ccc3c2)ccc1-c1noc(C(F)(F)F)n1 [Example 259, 5-({3-fluoro-4-[5-(trifluoromethyl)-1,2,4-oxadiazol-3-yl]phenyl}methoxy)-1H-pyrrolo[2,3-b]pyridine]	84	4200	
Fc1ccc(OCc2ccc(-c3noc(C(F)(F)F)n3)c(F)c2)cn1 [Example 260, 2-fluoro-5-({3-fluoro-4-[5-(trifluoromethyl)-1,2,4-oxadiazol-3-yl]phenyl}methoxy)pyridine]	120	12000	
Fc1ccc2ccc(OCc3ccc(-c4noc(C(F)(F)F)n4)c(F)c3)nc2n1 [Example 261, 2-fluoro-7-({3-fluoro-4-[5-(trifluoromethyl)-1,2,4-oxadiazol-3-yl]phenyl}methoxy)-1,8-naphthyridine]	24	850	
Fc1cc(COc2nnnc3ccccc23)ccc1-c1noc(C(F)(F)F)n1 [Example 262, 4-({3-fluoro-4-[5-(trifluoromethyl)-1,2,4-oxadiazol-3-yl]phenyl}methoxy)-1,2,3-benzotriazine]	120	2900	

SMILES	IC50 (HDAC5) [nM]	IC50 (HDAC1) [nM]	IC50 (HDAC8) [µM]
Cc1ccc(OCc2ccc(-c3noc(C(F)(F)F)n3)c(F)c2)nn1 [Example 263, 3-({3-fluoro-4-[5-(trifluoromethyl)-1,2,4-oxadiazol-3-yl]phenyl}methoxy)-6-methylpyridazine]	240	5300	
NC(=O)c1cccc(OCc2ccc(-c3noc(C(F)(F)F)n3)c(F)c2)c1 [Example 264, 3-({3-fluoro-4-[5-(trifluoromethyl)-1,2,4-oxadiazol-3-yl]phenyl}methoxy)benzamide]	90	2200	
Fc1cc(COc2cccc3c2CNCC3)ccc1-c1noc(C(F)(F)F)n1 [Example 265, 8-({3-fluoro-4-[5-(trifluoromethyl)-1,2,4-oxadiazol-3-yl]phenyl}methoxy)-1,2,3,4-tetrahydroisoquinoline]	280	5600	
Cc1ccnnc1OCc1ccc(-c2noc(C(F)(F)F)n2)c(F)c1 [Example 266, 3-({3-fluoro-4-[5-(trifluoromethyl)-1,2,4-oxadiazol-3-yl]phenyl}methoxy)-4-methylpyridazine]	250	6600	
NCc1cccc(OCc2ccc(-c3noc(C(F)(F)F)n3)c(F)c2)c1 [Example 267, 1-[3-({3-fluoro-4-[5-(trifluoromethyl)-1,2,4-oxadiazol-3-yl]phenyl}methoxy)phenyl]methanamine]	200	1100	
Fc1cc(COc2nccc3nccn23)ccc1-c1noc(C(F)(F)F)n1 [Example 268, 5-({3-fluoro-4-[5-(trifluoromethyl)-1,2,4-oxadiazol-3-yl]phenyl}methoxy)imidazo[1,2-c]pyrimidine]	120	2900	
O=C1COC[C@@H](CNCc2ccc(-c3noc(C(F)(F)F)n3)cn2)N1 [Example 450, (5R)-5-{[({5-[5-(trifluoromethyl)-1,2,4-oxadiazol-3-yl]pyridin-2-yl}methyl)amino]methyl}morpholin-3-one]		2800	2.8
O=C1COC[C@H](CNCc2ccc(-c3noc(C(F)(F)F)n3)cn2)N1 [Example 451, (5S)-5-{[({5-[5-(trifluoromethyl)-1,2,4-oxadiazol-3-yl]pyridin-2-yl}methyl)amino]methyl}morpholin-3-one]		2500	2.4
FC(F)(F)c1nc(-c2ccc(COc3ncccn3)cc2)no1 [Example 457, 2-({4-[5-(trifluoromethyl)-1,2,4-oxadiazol-3-yl]benzyl}oxy)pyrimidine]		2600	0.73
FC(F)(F)c1nc(-c2ccc(COc3ccc4ccccc4n3)nc2)no1 [Example 461, 2-({5-[5-(trifluoromethyl)-1,2,4-oxadiazol-3-yl]pyridin-2-yl}methoxy)quinoline]		500	21
CC(C)(C)OC(=O)C1COCC(=O)N1c1ccc(-c2noc(C(F)(F)F)n2)c(F)c1 (centres unmarked) [Example 468, tert-butyl 4-{3-fluoro-4-[5-(trifluoromethyl)-1,2,4-oxadiazol-3-yl]phenyl}-5-oxomorpholine-3-carboxylate]		940	5.5
O=C(C1CCS(=O)(=O)CC1)N(Cc1cnc(-c2noc(C(F)(F)F)n2)cn1)c1cccc(C(F)(F)F)c1 [Example 470, N-({5-[5-(trifluoromethyl)-1,2,4-oxadiazol-3-yl]pyrazin-2-yl}methyl)-N-[3-(trifluoromethyl)phenyl]tetrahydro-2H-thiopyran-4-carboxamide 1,1-dioxide]		1100	10
COC(=O)N1CC(=O)N(Cc2ccc(-c3noc(C(F)(F)F)n3)cn2)c2ccccc21 [Example 472, methyl 3-oxo-4-({5-[5-(trifluoromethyl)-1,2,4-oxadiazol-3-yl]pyridin-2-yl}methyl)-3,4-dihydroquinoxaline-1(2H)-carboxylate]		320	1.4
FC(F)(F)c1nc(-c2cnc(COc3ccc4ccccc4n3)nc2)no1 [Example 473, 2-({5-[5-(trifluoromethyl)-1,2,4-oxadiazol-3-yl]pyrimidin-2-yl}methoxy)quinoline]		160	45
O=c1ccc2ccccc2n1Cc1ncc(-c2noc(C(F)(F)F)n2)cn1 [Example 474, 1-({5-[5-(trifluoromethyl)-1,2,4-oxadiazol-3-yl]pyrimidin-2-yl}methyl)quinolin-2(1H)-one]		220	6
O=C1CCc2cccc(C(F)(F)F)c2N1Cc1ccc(-c2noc(C(F)(F)F)n2)cn1 [Example 475, 8-(trifluoromethyl)-1-({5-[5-(trifluoromethyl)-1,2,4-oxadiazol-3-yl]pyridin-2-yl}methyl)-3,4-dihydroquinolin-2(1H)-one]		880	5.6
